Read-outs that look alike come from different tables or passages of the source.
Tests used:
[1] = primates; cited from earlier work
HIV-1 [2] = conditions: cited from earlier work
SIV = conditions: cited from earlier work
HIV-2 = conditions: cited from earlier work
HIV = conditions: 12.5 mg/day to 200 mg/day (Gulick, 2002); cited from earlier work
[3] = target: HIV-1 gp41 (transmembrane subunit of the HIV-1 envelope glycoprotein) (HIV-1) (UniProt P03377); test: cell-based or functional assay
HIV-1 [4] = conditions: low nanomolar range; cited from earlier work
[5] = cited from earlier work; for terminal half-life: humans

In the case of “WQEWEQKITALLEQAQIQQEKNEYELQKLDKWASLWEWF [T-1249]”, the “half-life / AUC compared with T-20” value [1] is listed as “twofold increased AUC”, the “activity against HIV-1” value (HIV-1 [2]) is listed as “active” and the “activity against SIV” value (SIV) is listed as “active”. The “activity against HIV-2” value (HIV-2) was “active” and the “suppression of HIV” value (HIV) was “dose-related suppression of HIV”.
Work on “C-terminal albumin-(GGS)4GG-T-1249 fusion protein, produced in the standard (PMT1) yeast strain (from UniProt P02768 25-609)” yielded a 50% inhibitory concentration (IC50), HIV-1 cell-cell fusion assay on Jurkat cells [3] of 0.01 to 0.1 µM.
For enfuvirtide, the “activity against HIV-1” value (HIV-1 [2]) is given as “active against several clades of HIV-1”, the “activity against SIV” value (SIV) is given as “does not inhibit” and the “activity against HIV-2” value (HIV-2) is given as “does not inhibit”. The “antiviral activity in cell-cell fusion assays” value (HIV-1 [4]) was 0.2 to 2 nM, the plasma half-life ([5]; clinical trials, typical dose 50 mg twice daily) was “about 1.8 hours” and the terminal half-life ([5]; 45 mg subcutaneous dose (Zhang X et al., 2002)) was 3.46 h. For the same substance, the terminal half-life ([5]; 180 mg subcutaneous dose (Zhang X et al., 2002)) was 4.35 h.
“C-terminal albumin-(GGS)4GG-T-20 fusion protein, expressed in the pmt1 gene deficient yeast strain (from UniProt P02768 25-609)” gave a 50% inhibitory concentration, HIV-1 cell-cell fusion assay on Jurkat cells [3] of 4 to 13 nM.
